One assay concerns the target T1, human estrogen receptor (Homo sapiens, UniProt P03372).
T1 construct: expressed in transfected cells; host or cells: HeLa
T1 sequence (P03372 1-595): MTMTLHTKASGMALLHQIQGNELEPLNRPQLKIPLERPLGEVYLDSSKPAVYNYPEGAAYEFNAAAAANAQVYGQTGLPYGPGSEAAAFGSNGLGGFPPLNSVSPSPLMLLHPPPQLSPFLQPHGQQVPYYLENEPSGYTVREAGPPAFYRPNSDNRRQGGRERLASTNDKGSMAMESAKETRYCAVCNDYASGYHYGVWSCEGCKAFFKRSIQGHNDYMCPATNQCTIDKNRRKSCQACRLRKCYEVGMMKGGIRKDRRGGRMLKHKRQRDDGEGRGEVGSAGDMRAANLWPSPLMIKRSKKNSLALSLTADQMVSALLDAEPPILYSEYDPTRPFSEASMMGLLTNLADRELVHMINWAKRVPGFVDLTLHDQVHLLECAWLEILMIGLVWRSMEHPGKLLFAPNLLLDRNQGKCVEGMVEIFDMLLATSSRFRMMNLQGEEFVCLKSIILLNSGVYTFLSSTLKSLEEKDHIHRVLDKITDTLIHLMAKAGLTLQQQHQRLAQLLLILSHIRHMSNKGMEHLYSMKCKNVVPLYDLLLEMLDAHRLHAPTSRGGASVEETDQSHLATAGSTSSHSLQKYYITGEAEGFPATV
Briefly: Transactivation assay, HeLa cells transfixed with human estrogen receptor-expression vector (HEGO) and Vit-TK-CAT reporter gene. The assay is classed as cell-based. The procedure:
The antiestrogenic action of the compounds according to the invention was determined in transactivation assays [Demirpence, E.; Duchesne M.-J.; Badia, E.; Gagne, D. and Pons, M.: MVLN Cells: A Bioluminescent MCF-7-Derived Cell Line to Study the Modulation of Estrogenic Activity; J. Steroid. Molec. Biol. Vol. 46, No. 3, 355-364 (1993) as well as Berry, M.; Metzeger D.; Chambon, P.: Role of the Two Activating Domains of the Estrogen Receptor in the Cell-type and Promoter-context Dependent Agonistic Activity of the Anti-estrogen 4-Hydroxytamoxifen; The EMBO Journal Vol. 9, 2811-2818 (1990)].
The HeLa cells are transfixed with human estrogen receptor-expression vector (HEGO) and Vit-TK-CAT reporter genes, and the MVLN cells are transfixed with reporter gene Vit-TK-LUC: […]
(In general: A reporter such as luciferase makes a cellular process visible.)

Assay [1] relates to DMBA-induced breast cancer. Briefly: DMBA-induced breast cancer in rats. Type of assay: in vivo, rat. The source says: 2.2 DMBA*-induced breast cancer in rats
2.2. Influencing Tumor Growth in the […] Model in Rats (DMBA Tumor Model)
*9,10-Dimethyl-1,2-benanthracene
The growth of the DMBA-induced breast neoplasm of rats is largely dependent on estrogens and prolactin. Active antiestrogens, antigestagens, and aromatase inhibitors result in the inhibition of tumor growth, and substances that have antigonadotropic and androgenic properties also exert a tumor-inhibiting action.
45-47-day-old female rats (Sprague-Dawley, breeder ZiH or Mollegard), 8-10 animals per group.
The animals receive 10 mg of DMBA orally on a one-time basis. Then, the animals are examined weekly by palpation for tumor development. Six to 10 weeks after DNBA treatment, approximately 1 to 10 tumors develop per animal. The tumor size is determined once a week with the aid of a sliding gauge. If at least one tumor has reached a specific size (150 mm^2 of tumor surface area), an ovariectomy is performed on the animals, or the treatment of the animals with the test substance begins. The treatment is carried out in most cases daily for a period of about 28 days (for details on execution, see Test Plan). The tumor size is subsequently determined once a week.
The total tumor size per animal is determined before the beginning of treatment (initial values). For each group, the average values of the percentage changes of the tumor size relative to the initial value are then calculated. In addition, the percentage of animals per group is determined, whose tumors in each case: (1) have totally disappeared (total regression); partially disappeared (partial regression); (3) are unchanged (no change); or (4) are further enlarged (enlargement).
The values that are found are tested for significance in the Dunnett Test and are plotted graphically.

The subject of assay [2] is uterus growth (estradiol benzoate). As to the kind of experiment: Uterus growth test in infantile rats (antiestrogenic action). The assay is classed as in vivo, rat. The settings on record: differences highly significant (FIG. 1 and 2). The source says:
1. Uterus growth test in infantile rats, s.c. and p.o. (test for antiestrogenic action)
1. Uterus Growth Test in Infantile Rats (Antiestrogenic Action)
In rodents, the uterus reacts to the administration of estrogens with an increase in weight (both proliferation and water retention). This growth is to be inhibited in a dose-dependent-manner by simultaneous administration of compounds with an antiestrogenic action.
Infantile female rats at a weight of 35-45 g at the beginning of the test, 5-6 animals per dose.
Formulation and Administration of the Substances: […]
Both for s.c. and for p.o. administration, the substances are dissolved in 1 part of ethanol (E) and made up with 9 parts of peanut oil (EO).
Young rats that have just been weaned from their mothers are delivered one day before the beginning of treatment for acclimatization and are immediately supplied with food--still in the animal cage. […] The wet weights (without contents) are determined from the prepared uteri. […]
For each group, the average values with standard deviation (X+SD), as well as the significance of the differences compared to the control group (EB) in the Dunnett Test (p<0.05), are determined from the relative organ weights (mg/100 g of body weight). […] The relative effects of the test substances are determined by covariance and regression analysis.

One may read the IC50 as the concentration needed to halve the response being measured.

As to `CN(CCCCC[C@@H]1Cc2cc(O)ccc2[C@H]2CC[C@]3(C)[C@@H](O)CC[C@H]3[C@H]12)CCCSCCCC(F)(F)C(F)(F)F` [Example 1, 7α-{5-[N-Methyl-N-3-(4,4,5,5,5-pentafluoropentylthio)-propylamino]-pentyl}-estra-1,3,5(10)-triene-3,17β-diol], on human estrogen receptor, the concentration for half-maximal inhibition (IC50) worked out at 0.3 nM. Moreover, the “activity compared to tamoxifen (TAM)” value in assay [1] (DMBA, oral (FIG. 4)) is “even more strongly active than tamoxifen (TAM)”. For the same compound, the “inhibition of tumor growth” value in assay [1] (oral, 3 mg/kg/day (FIG. 4)) is given as “completely inhibits tumor growth (no growth)”. Besides, the “relative antiestrogenic activity vs 7α-[9-(4,4,5,5,5-pentafluoropentanesulfinyl)-nonyl]-estra-1,3,5(10)-triene-3,17β-diol” value is 4.7 times in assay [2] (oral administration) and 5.4 times in assay [2] (subcutaneous administration).

Source of the values: patent US6288051A, “7 α-(5-methylaminopentyl)-estratrienes, process for their production, pharmaceutical preparations that contain these 7 α(5-methylaminopentyl)-estratrienes as well as their use for the production of pharmaceutical agents” (Schering Aktiengesellschaft, priority 1996, dated 2001).
